Measurements reported in ChEMBL document CHEMBL1138480, “Discovery of highly potent and selective biphenylacylsulfonamide-based beta3-adrenergic receptor agonists and evaluation of physical properties as potential overactive bladder therapies: part 5” (J Med Chem, 2009).

Experiments:
[1] = target: Beta-3 adrenergic receptor (Homo sapiens, UniProt P13945); assay: Agonist activity at human recombinant beta3 adrenergic receptor expressed in CHO cells assessed as cAMP accumulation by enzyme immunoassay; format: functional, cell-based
Chain of Beta-3 adrenergic receptor (Homo sapiens, UniProt P13945) (P13945 whole entry): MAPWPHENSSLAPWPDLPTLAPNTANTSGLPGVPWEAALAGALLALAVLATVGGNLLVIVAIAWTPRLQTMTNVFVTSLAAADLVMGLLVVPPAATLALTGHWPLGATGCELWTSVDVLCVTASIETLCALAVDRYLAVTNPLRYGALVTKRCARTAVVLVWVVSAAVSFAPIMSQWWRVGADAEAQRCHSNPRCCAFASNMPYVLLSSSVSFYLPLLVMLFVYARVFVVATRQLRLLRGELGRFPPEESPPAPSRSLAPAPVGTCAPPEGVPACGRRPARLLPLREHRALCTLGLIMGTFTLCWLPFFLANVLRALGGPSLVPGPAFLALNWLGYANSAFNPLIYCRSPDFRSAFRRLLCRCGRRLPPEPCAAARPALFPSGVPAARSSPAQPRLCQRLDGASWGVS

[2] = Total clearance in monkey at 0.32 mg/kg, iv by cassette assay; format: ADME, organism-based, Macaca mulatta; parameters: dose 0.32 mg/kg, route intravenous; conditions: rhesus monkey, in vivo
[3] = Terminal half life in monkey plasma at 0.32 mg/kg, iv by cassette assay; format: ADME, organism-based, Macaca mulatta; parameters: dose 0.32 mg/kg, route intravenous; conditions: rhesus monkey, read-out: beta t1/2 (converted)
[4] = Ratio of EC50 for inhibition of KCl-induced tonic contraction in anesthetized Beagle dog detrusor muscle strip to EC50 for dog recombinant beta3 adrenergic receptor expressed in CHO cells; parameters: species or system Canis lupus familiaris
[5] = AUC (0 to 24 hrs) in monkey at 0.32 mg/kg, po by cassette assay; format: ADME, organism-based, Macaca mulatta; parameters: time < 24 hr, dose 0.32 mg/kg, route oral; conditions: rhesus monkey, plasma
[6] = Bioavailability in rat at 0.32 mg/kg, po and iv by cassette assay; format: ADME, organism-based; conditions: in vivo
[7] = AUC (0 to 24 hrs) in Beagle dog at 0.10 mg/kg, po by cassette assay; format: ADME, organism-based, Canis lupus familiaris; parameters: time < 24 hr, dose 0.1 mg/kg, route oral; conditions: plasma, 0.1 mg/kg
[8] = Bioavailability in monkey at 0.32 mg/kg, po and iv by cassette assay; format: ADME, organism-based, Macaca mulatta; conditions: rhesus monkey, in vivo
Canis familiaris [9] = assay: Inhibition of carbachol-induced increase in intravesical pressure in Beagle dog OAB model at 10 ug/kg, iv for 30 mins measured for 180 mins; format: functional; conditions: Canis lupus familiaris
[10] = Metabolic stability in rat liver microsomes assessed as intrinsic clearance after 120 mins in presence of NADPH; format: ADME, Microsome
[11] = Metabolic stability in monkey liver microsomes assessed as intrinsic clearance after 120 mins in presence of NADPH; format: ADME, Macaca mulatta, Microsome; conditions: rhesus monkey
[12] = Bioavailability in Beagle dog at 0.10 mg/kg, po and iv by cassette assay; format: ADME, organism-based, Canis lupus familiaris; conditions: in vivo, 0.1 mg/kg
[13] = Inhibition of KCl-induced tonic contraction in Beagle dog detrusor muscle strips preincubated for 15 mins before KCl challenge; format: functional; conditions: Canis lupus familiaris
[14] = Metabolic stability in human liver microsomes assessed as intrinsic clearance after 120 mins in presence of NADPH; format: ADME, Microsome
[15] = Cmax in rat at 0.32 mg/kg, po by cassette assay; format: ADME, organism-based; parameters: dose 0.32 mg/kg, route oral; conditions: in vivo
[16] = Cmax in Beagle dog at 0.10 mg/kg, po by cassette assay; format: ADME, organism-based, Canis lupus familiaris; parameters: dose 0.1 mg/kg, route oral; conditions: in vivo, 0.1 mg/kg
[17] = Terminal half life in rat plasma at 0.32 mg/kg, iv by cassette assay; format: ADME, organism-based; parameters: dose 0.32 mg/kg, route intravenous; conditions: read-out: beta t1/2 (converted)
[18] = target: Beta-1 adrenergic receptor (Homo sapiens, UniProt P08588)
Chain of Beta-1 adrenergic receptor (P08588 whole entry): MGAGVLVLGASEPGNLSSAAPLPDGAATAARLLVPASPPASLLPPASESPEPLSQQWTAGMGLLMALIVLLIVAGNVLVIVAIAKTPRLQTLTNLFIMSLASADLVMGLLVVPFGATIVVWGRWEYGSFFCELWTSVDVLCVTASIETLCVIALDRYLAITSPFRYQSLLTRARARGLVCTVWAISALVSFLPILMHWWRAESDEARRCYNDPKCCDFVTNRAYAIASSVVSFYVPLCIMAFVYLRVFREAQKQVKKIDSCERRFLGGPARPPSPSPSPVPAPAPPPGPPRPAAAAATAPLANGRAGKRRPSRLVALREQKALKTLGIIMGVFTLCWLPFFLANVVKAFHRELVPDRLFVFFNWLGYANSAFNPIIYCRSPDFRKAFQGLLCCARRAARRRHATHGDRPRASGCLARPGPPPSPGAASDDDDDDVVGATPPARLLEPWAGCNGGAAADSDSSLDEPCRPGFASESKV
Description: Agonist activity at human recombinant beta-1 adrenergic receptor expressed in CHO cells assessed as cAMP accumulation by enzyme immunoassay

Canis familiaris [19] = assay: Inhibition of carbachol-induced increase in intravesical pressure in intraduodenally dosed Beagle dog OAB model for 30 mins measured for 180 mins; format: functional, organism-based; conditions: Canis lupus familiaris
[20] = Cmax in monkey at 0.32 mg/kg, po by cassette assay; format: ADME, organism-based, Macaca mulatta; parameters: dose 0.32 mg/kg, route oral; conditions: rhesus monkey, in vivo
[21] = target: Beta-2 adrenergic receptor (Homo sapiens, UniProt P07550)
Chain of Beta-2 adrenergic receptor (P07550 whole entry): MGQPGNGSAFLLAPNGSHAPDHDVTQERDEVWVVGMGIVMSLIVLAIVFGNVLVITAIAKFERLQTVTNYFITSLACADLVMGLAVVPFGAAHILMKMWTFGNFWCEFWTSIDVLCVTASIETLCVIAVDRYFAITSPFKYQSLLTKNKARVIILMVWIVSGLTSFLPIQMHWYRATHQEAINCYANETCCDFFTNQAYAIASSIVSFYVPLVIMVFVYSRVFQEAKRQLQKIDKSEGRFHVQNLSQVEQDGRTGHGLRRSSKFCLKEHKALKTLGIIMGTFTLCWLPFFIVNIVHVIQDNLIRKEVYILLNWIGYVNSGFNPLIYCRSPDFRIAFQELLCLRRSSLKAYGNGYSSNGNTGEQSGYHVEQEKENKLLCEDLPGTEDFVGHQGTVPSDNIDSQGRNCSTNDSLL
Description: Agonist activity at human recombinant beta2 adrenergic receptor expressed in CHO cells assessed as cAMP accumulation by enzyme immunoassay

[22] = AUC (0 to 24 hrs) in rat at 0.32 mg/kg, po by cassette assay; format: ADME, organism-based; parameters: time < 24 hr, dose 0.32 mg/kg, route oral; conditions: plasma
[23] = Total clearance in rat at 0.32 mg/kg, iv by cassette assay; format: ADME, organism-based; parameters: dose 0.32 mg/kg, route intravenous; conditions: in vivo
[24] = Total clearance in Beagle dog at 0.10 mg/kg, iv by cassette assay; format: ADME, organism-based, Canis lupus familiaris; parameters: dose 0.1 mg/kg, route intravenous; conditions: in vivo, 0.1 mg/kg
[25] = Terminal half life in Beagle dog plasma at 0.10 mg/kg, iv by cassette assay; format: ADME, organism-based, Canis lupus familiaris; parameters: dose 0.1 mg/kg, route intravenous; conditions: 0.1 mg/kg, read-out: beta t1/2 (converted)
[26] = Protein binding in Beagle dog serum; format: ADME, cell-free, Canis lupus familiaris; conditions: read-out: PPB (converted)
[27] = target: Beta-3 adrenergic receptor (Canis lupus familiaris, UniProt O02662); assay: Agonist activity at dog recombinant beta3 adrenergic receptor expressed in CHO cells assessed as cAMP accumulation by enzyme immunoassay; format: functional, cell-based; conditions: read-out: EC50
Chain of Beta-3 adrenergic receptor (Canis lupus familiaris, UniProt O02662) (O02662 whole entry): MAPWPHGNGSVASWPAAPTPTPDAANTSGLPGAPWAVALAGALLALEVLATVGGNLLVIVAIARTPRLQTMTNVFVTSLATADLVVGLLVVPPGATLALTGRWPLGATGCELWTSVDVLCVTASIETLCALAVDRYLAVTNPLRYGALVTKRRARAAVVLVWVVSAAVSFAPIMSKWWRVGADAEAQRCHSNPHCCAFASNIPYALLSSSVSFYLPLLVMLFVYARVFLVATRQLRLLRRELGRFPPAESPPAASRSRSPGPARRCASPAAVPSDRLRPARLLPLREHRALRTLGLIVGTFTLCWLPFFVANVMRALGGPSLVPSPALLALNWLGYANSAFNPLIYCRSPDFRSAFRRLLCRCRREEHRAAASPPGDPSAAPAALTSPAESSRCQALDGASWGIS

[28] = Cmax in Beagle dog at 0.10 mg/kg, po; format: ADME, organism-based, Canis lupus familiaris; parameters: dose 0.1 mg/kg, route oral; conditions: in vivo, 0.1 mg/kg
[29] = Terminal half life in Beagle dog at 0.10 mg/kg, po; format: ADME, organism-based, Canis lupus familiaris; parameters: dose 0.1 mg/kg, route oral; conditions: in vivo, 0.1 mg/kg, read-out: beta t1/2 (converted)
[30] = Bioavailability in Beagle dog at 0.10 mg/kg, po and iv; format: ADME, organism-based, Canis lupus familiaris; conditions: in vivo, 0.1 mg/kg
[31] = Total clearance in Beagle dog at 0.10 mg/kg, iv; conditions: in vivo, 0.1 mg/kg
[32] = AUC (0 to 24 hrs) in Beagle dog at 0.10 mg/kg, po; format: ADME, organism-based, Canis lupus familiaris; parameters: time < 24 hr, dose 0.1 mg/kg, route oral; conditions: plasma, 0.1 mg/kg
[33] = Metabolic stability in dog liver microsomes assessed as intrinsic clearance after 120 mins in presence of NADPH; format: ADME, Canis lupus familiaris, Microsome

Row | SMILES | EC50 ([1]; read-out: EC50) | clearance [2] | half-life [3] | AUC(0-t) at 24 h [5] | bioavailability [6] | AUC(0-t) at 24 h [7] | bioavailability [8] | inhibition in vivo at 0.01 mg/kg (Canis familiaris [9]) | CLint scaled [10] | bioavailability [12] | EC50 ([13]; read-out: EC50) | Cmax [15] | Cmax [16] | half-life [17] | EC50 [18] | EC50 (Canis familiaris [19]) | ED50 (Canis familiaris [19]) | clearance [24] | half-life [25] | EC50 [27] | other results
1 | CS(=O)(=O)NC(=O)c1ccc(-c2ccc(CCNC[C@H](O)c3cccnc3)cc2)cc1OC1CCCCC1.Cl.Cl | 0.13 nM | 7.5 mL/min/kg | 4.7 h | 272 ng·h/mL | 25% | 385 ng·h/mL | 38% | > 70% | 46.9 mL/min/kg | 81% | 62 nM | 17 ng/mL | 34.5 ng/mL | 3 h | 800 nM | 26.5 nM | 0.0162 mg/kg | 3.2 mL/min/kg | 5.5 h | 1.4 nM | Ratio EC50 [4]: >50; CLint scaled [11]: 3.4 mL/min/kg; CLint scaled [14]: 3.5 mL/min/kg; Cmax [20]: 35.1 ng/mL; EC50 [21]: > 10000 nM; AUC(0-t) at 24 h [22]: 72.2 ng·h/mL; clearance [23]: 17.1 mL/min/kg; fraction unbound [26]: 0.17
2 | CS(=O)(=O)NC(=O)c1ccc(-c2ccc(CCNC[C@H](O)c3ccccc3)cc2)cc1OC1CCCCC1.Cl | 0.43 nM |  |  |  |  | 363 ng·h/mL |  | 58% |  | 70% | > 50 nM |  | 22.2 ng/mL |  | > 1000 nM |  |  | 3 mL/min/kg | 7.8 h | 0.83 nM | EC50 ([1]; read-out: pEC50 (converted)): 0.126 nM; Ratio EC50 [4]: >50; EC50 ([13]; read-out: pEC50 (converted)): 12.6 nM
3 | CC(C)Sc1cc(-c2ccc(CCNC[C@H](O)c3ccccc3)cc2)ccc1C(=O)NS(C)(=O)=O.Cl | 0.32 nM | 9.2 mL/min/kg | 5.8 h | 143 ng·h/mL | 41% | 441 ng·h/mL | 24% | > 70% | 84.3 mL/min/kg | 75% | 11.4 nM | 9.9 ng/mL | 39.8 ng/mL | 2.3 h | > 1000 nM | 8.2 nM | 0.0145 mg/kg | 2.9 mL/min/kg | 4.3 h | 0.68 nM | Cmax [28]: 18.2 ng/mL; half-life [29]: 4.8 h; bioavailability [30]: 62%; Cmax [20]: 15.7 ng/mL; EC50 [21]: > 10000 nM; AUC(0-t) at 24 h [22]: 108 ng·h/mL; clearance [31]: 5.1 mL/min/kg; clearance [23]: 19.6 mL/min/kg; AUC(0-t) at 24 h [32]: 215 ng·h/mL; fraction unbound [26]: 0.1
4 | CC(C)Nc1cc(-c2ccc(CCNC[C@H](O)c3ccccc3)cc2)ccc1C(=O)NS(C)(=O)=O.Cl.Cl | 0.6 nM | 25.9 mL/min/kg | 3.1 h | 19.3 ng·h/mL | 20% | 95.8 ng·h/mL | 10% | > 70% | 36 mL/min/kg | 45% | 1.2 nM | 14.9 ng/mL | 8.6 ng/mL | 4.1 h | 260 nM | 7.1 nM | 0.0349 mg/kg | 7.5 mL/min/kg | 6.3 h | 1.1 nM | CLint scaled [33]: 3.3 mL/min/kg; CLint scaled [11]: 5.4 mL/min/kg; Cmax [20]: 2.7 ng/mL; EC50 [21]: > 10000 nM; AUC(0-t) at 24 h [22]: 60.9 ng·h/mL; clearance [23]: 16.9 mL/min/kg; fraction unbound [26]: 0.1
